Where “and” joins values, the source holds several entries; their conditions need not be identical. Equal values may be shown once.
Assays:
Type in all cases: physicochemical
[1] = Sublimation test (cold finger, HPLC quantification of sublimate); details: for Sublimation (result in words): conditions of the sublimation test, non-sublimating = less than 1% in 72 hours at 150 mBar, 60° C.; for Sublimate: drug substance, Pressure: 150 mbar, Test period: 72 hrs
Description: The property of sublimation can be observed and quantified with known methods to measure sublimation. For example, sublimation can be measured in an apparatus with a chamber in which the test compound is placed in its solid state and maintained in that state by controlled temperature. The gas phase in the chamber, optionally under low pressure, can be analyzed for content of test compound. It is also possible to continuously clear the test compound in the gas phase from the chamber either by a continuous renewal stream of a gas or by creating a sink for the test compound out of the gas phase, for example by a cold surface. The amount of material collected from sublimation or escaped from the sample by sublimation can be analyzed. The degree of sublimation is expressed as the fraction (as percentage) of the initial sample size.
The term ‘non-sublimating’ salt is defined to be a salt of S- or R-mirtazapine, from which less than 1% of the mirtazapine is sublimating from the sample, calculated on the basis of the amount of the base, when a sample of approximately 10 mg (for example an amount between 8-12 mg) is placed for the duration of 72 hours under standard conditions of 150 mBar pressure and 60° C. temperature.
Figure: Schematic presentation of the sublimation test equipment. A sample is placed on the bottom of a vessel, which is closed at the top by a vessel-shaped stopper into which cooling liquid (CL) is circulating and which vessel has an outlet connected to a vacuum pump (Vac). The vessel is placed in a closed chamber under constant temperature control (TC). A sublimate (Subl) can accumulate against the surface of the stopper within the vessel.
A sample (approximately 10 mg) was placed in a sample chamber of sublimation test equipment as illustrated in FIG. 1. The temperature in the sample chamber is controllable. The sample holder has a reduced pressure, which was 150 mBar by default. The sample chamber also consists of a section with reduced temperature (the “cold finger”), where the temperature is approximately 5° C. The majority of material that sublimates in the test sample with high temperature will precipitate on the cold finger. The amount of material on the cold finger after a test period of 72 hrs has been quantified using HPLC analysis. The degree of sublimation is expressed as the fraction material on the cold finger (as percentage) of the initial sample size. Additionally, the sublimation of active compound from tablets “drug product” has been tested.

[2] = Sublimation observations outside the standard test
[3] = Hygroscopicity (dynamic vapor sorption / water uptake from air); details: for Hygroscopicity / affinity for water: environmental air, ambient conditions, method not stated; for Hygroscopicity: dynamic vapor sorption measurement
Experimental: To a solution of 3.01 g of S-mirtazapine in 5 ml of methanol was added at room temperature a solution of 1290 μl of hydrobromic acid in 20 ml of ethyl acetate. […] The mixture was cooled to 0° C. whereupon crystallization started. The white crystals were collected by filtration and were dried in a vacuum oven at 40° C. […] A water free drug substance sample attracts water when it comes in contact with environmental air, while it may loose water upon drying.

[4] = Temperature: 60° C., DL = level of detection

CN1CCN2c3ncccc3Cc3ccccc3C2C1.O=C(O)C(F)(F)F (stereo not drawn) [S-mirtazapine trifluoroacetic acid salt]
Sublimation (result in words) ([1]; listed as trifluoroacetic acid salt of S- or R-mirtazapine, trifluoroacetic acid salt): showed sublimation | Sublimation (result in words) ([1]; trifluoroacetic acid salt): not a non-sublimating salt

CN1CCN2c3ncccc3Cc3ccccc3[C@H]2C1 [S-mirtazapine, 1,2,3,4,10,14b-hexahydro-2-methyl-pyrazino[2,1-a]pyrido[2,3-c][2]benzazepine, reference compound]
Sublimation (result in words) [1]: sublimates at the conditions used | Sublimate ([1]; Temperature: 40° C., fraction of initial sample on cold finger, listed as S-mirtazapine Batch E): 0.75% | Sublimate ([1]; Temperature: 40° C., fraction of initial sample on cold finger, listed as S-mirtazapine Batch J): 0.88% | Sublimate ([1]; Temperature: 60° C., DL = level of detection, listed as S-mirtazapine Batch E): 5.32% and 2.22% | Sublimate ([1]; Temperature: 60° C., DL = level of detection, listed as S-mirtazapine Batch J): 4.29% | Sublimation at ambient temperature ([2]; ambient temperature): slowly sublimating

Br.CN1CCN2c3ncccc3Cc3ccccc3[C@H]2C1 [S-mirtazapine•HBr, S-mirtazapine hydrobromic acid salt]
Sublimation (result in words) [1]: do not sublimate | Hygroscopicity / affinity for water [3]: forms a monohydrate under ambient conditions

CN1CCN2c3ncccc3Cc3ccccc3[C@H]2C1.Cl [S-mirtazapine•HCl, S-mirtazapine hydrochloric acid salt]
Sublimate [1, 4]: 0.2% | Temperature above which the compound starts to sublime [2]: above 170 °C | Hygroscopicity [3]: very hygroscopic

CN1CCN2c3ncccc3Cc3ccccc3[C@H]2C1.O=C(O)/C=C/C(=O)O [S-mirtazapine•fumaric acid, S-mirtazapine fumaric acid salt]
Sublimation (result in words) [1]: do not sublimate | Hygroscopicity / affinity for water [3]: attracts water from environmental air to form a hydrate

CN1CCN2c3ncccc3Cc3ccccc3[C@H]2C1.O=C(O)/C=C\C(=O)O [S-mirtazapine•maleic acid, S-mirtazapine maleic acid salt]
Sublimation (result in words) [1]: do not sublimate | Hygroscopicity [3]: not hygroscopic | Hygroscopicity / affinity for water [3]: not hygroscopic

CN1CCN2c3ncccc3Cc3ccccc3C2C1.CS(=O)(=O)O (stereo not drawn) [S-mirtazapine•methanesulfonic acid, S-mirtazapine methanesulfonic acid salt]
Sublimation (result in words) [1]: non-sublimation | Sublimate [1, 4]: 0.1% and 0.0% | Hygroscopicity / affinity for water [3]: non-hygroscopicity

Source: patent US20070111993A1, “Pharmaceutical composition comprising a salt of mirtazapine” (AKZO NOBEL N.V., priority 2004, published 2007)
